Calls of active or inactive are those of the source.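 Rule for the calls: active = AC50 no more than ten times the top concentration tested, that is within one log above it; inconclusive = flat curve fit with activity between 30% and 70%, or invalid poor fit; inactive = AC50 beyond ten times the top tested dose.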 Some results are limits rather than exact numbers.

As a reminder, the AC50 is the midpoint of the concentration-response curve, whichever way the signal moves.

The test system of this assay is S. cerevisiae Mot1-301 ts growth rescue, BacTiter-Glo ATP luminescence. Kind of assay: restored Mot1-301 yeast growth at 38.5C – whole organism, S. cerevisiae, Mot1-301 ts mutant, luminescence, dose retest, SUMOylation pathway inhibitor project, confirmation (AID 463204).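 Note: growth at restrictive 38.5 degrees C of Mot1-301 OY566 strain; actives raise luminescence by restoring growth of the ts mutant at high temperature.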
In the case of `O=C(CCC(=O)OCC(=O)c1ccc(Br)cc1)Nc1cccc2cccnc12`, the AC50 was > 42 µM (inactive).
As for `COc1cc(S(=O)(=O)N2CCN(c3ccccc3)CC2)ccc1F`, the AC50 was > 42 µM (inactive).
In the case of `COc1ccc(C(=O)NCC(=O)Nc2ccccc2)cc1OC`, the AC50 was > 42 µM (inactive).
`CCOc1ccc(C(C(=O)NC2CCCC2)N(C(=O)c2snc(C(N)=O)c2N)C2CCCC2)cc1` (configuration not stated): the AC50 was 42 µM.
With `Cc1cc(C)c(S(=O)(=O)NCC(c2cccnc2)N2CCN(Cc3ccccc3)CC2)c(C)c1` (configuration not stated), the AC50 is > 42 µM (inactive).
Regarding `CC1CCN(CCNC(=O)C2CCCN(S(=O)(=O)c3cccc4nsnc34)C2)CC1` (configuration not stated), the AC50 was > 42 µM (inactive).
Consider `CC(C)NC(=O)NC(=O)COC(=O)CCCSc1nc2ccccc2s1`, for which the AC50 was > 42 µM (inactive).
Turning to `O=C1CC(c2cccc(Br)c2)C2=C(COC2=O)N1` (configuration not stated), the AC50 is > 42 µM (inactive).
`CCCOc1ccccc1C1NC(=O)NC(C)=C1C(=O)OCc1ccccc1` (configuration not stated): the AC50 is > 42 µM (inactive).
In the case of `COc1cc(/C=C2\NC(=S)N(C)C2=O)ccc1OCc1cccc(F)c1`, the AC50 was > 42 µM (inactive).
Turning to `COC(=O)c1cc(Cl)c(NC(=O)C(C)C)cc1OC`, the AC50 was > 42 µM (inactive).
Then `Cc1cc(NC(=O)CSc2ncn(-c3ccccc3)n2)no1`, with > 42 µM (inactive).
As for `CN(C)c1ccc2nc3ccc(=[N+](C)C)cc-3sc2c1`, the AC50 was > 42 µM (inactive).
As for `Cc1cc(Nc2nc3c(c(=O)n(C)c(=O)n3C)n2C)n(-c2ccc(Cl)cc2)n1`, the AC50 was > 42 µM (inactive).
With `CCCc1cc(=O)oc2c3c(c4c(c12)OC(C)(C)C=C4)OC(C)C(C)C3O` (configuration not stated), the AC50 is > 42 µM (inactive).
On to `O=C(Nc1cccnc1Cl)c1cc2ccccc2o1`, for which the AC50 was > 42 µM (inactive).
Then `Cc1ccc(NC(=O)NNC(=O)Cn2nc(-c3ccccc3)c(-c3ccccc3)c(C#N)c2=O)cc1`, with > 42 µM (inactive); and `Cc1cccc(N/N=C/c2c(O)[nH]c(=S)[nH]c2=O)c1`, with > 42 µM (inactive); and `O=C(CS(=O)c1ccc(C(F)(F)F)cc1[N+](=O)[O-])Oc1ccc(Cl)cc1` (configuration not stated), with 1.47 µM.
In the case of `COc1cccc(OC)c1OCC(O)CN1CCN(c2ccccc2)CC1` (configuration not stated), the AC50 was > 42 µM (inactive).
Take `CCOC(=O)N1CCN(S(=O)(=O)c2ccc(Br)s2)CC1`: the AC50 was > 42 µM (inactive).
With `CC(C)C(=O)Nc1ccc(NC(=S)NC(=O)c2ccccc2F)cc1`, the AC50 is > 42 µM (inactive).
Under `CCOC(C(=O)OCCCN(CC)CC)(c1ccccc1)c1ccccc1` stands > 42 µM (inactive); under `COCCNC(=O)C(=O)NCC1OCCN1C(=O)c1ccc(Cl)cc1` (configuration not stated), > 42 µM (inactive); under `O=C(OCc1nc2ccsc2c(=O)[nH]1)c1ccco1`, > 42 µM (inactive).
As for `CCOc1ncccc1-c1nc(-c2cccs2)no1`, the AC50 was > 42 µM (inactive).
Consider `O=C1CCCC2=C1C(c1ccncc1)c1c(nc(SCc3ccccc3Cl)[nH]c1=O)N2` (configuration not stated), for which the AC50 is > 42 µM (inactive).
In the case of `CCNCCNC(=O)c1c(O)c2c([nH]c1=O)CCCC2`, the AC50 is > 42 µM (inactive).
Regarding `CCSc1nc2ccccc2c(=O)n1C1CCOC(C)(C)C1` (configuration not stated), the AC50 was > 42 µM (inactive).
As to `Cc1c(C)c2c(c(C)c1O)CCC(C)(C(=O)O)O2` (configuration not stated), the AC50 is > 42 µM (inactive).
For the molecule `Cc1ccc(C(C(=O)Nc2ccc3c(c2)OCO3)N(C)C(=O)Cc2c[nH]c3ccccc23)cc1` (configuration not stated), the AC50 is > 42 µM (inactive).
Turning to `COc1ccc(N2CCN(C(c3cccs3)C(C)NS(C)(=O)=O)CC2)cc1` (configuration not stated), the AC50 is > 42 µM (inactive).
`O=C(Nc1ccc([N+](=O)[O-])cn1)c1ccc2c(c1)OCO2`: the AC50 was > 42 µM (inactive).
As for `CCOC(=O)C1CCCN(C(=O)c2cc(-c3ccc(F)cc3)nc3ccccc23)C1` (configuration not stated), the AC50 is > 42 µM (inactive).
For `CCCCn1c(N)c(N(Cc2ccccc2OC)C(=O)c2c(CC)noc2C)c(=O)[nH]c1=O`, the AC50 is > 42 µM (inactive).
Regarding `COc1cc(NC(=O)c2cc(Cl)ccc2Cl)ccc1-c1cc2ccccc2oc1=O`, the AC50 is > 42 µM (inactive).
Then `C=CCN(C(=O)CNC(=O)c1ccco1)C(C(=O)NC1CCCCC1)c1ccccc1` (configuration not stated), with > 42 µM (inactive); and `COc1ccc(-c2cc(C(F)(F)F)n3ncc(C(=O)O)c3n2)cc1OC`, with > 42 µM (inactive); and `CCOCCCNC(=O)C(c1ccc(OC)cc1)N(Cc1cccs1)C(=O)c1ccccn1` (configuration not stated), with > 42 µM (inactive).
As for `FC(F)(F)c1nc2ccccc2n2c(-c3ccc(Cl)cc3Cl)nnc12`, the AC50 was > 42 µM (inactive).
Turning to `CCN(CC)S(=O)(=O)c1cc(NC(=O)COC(=O)CCc2nc3ccccc3s2)ccc1C`, the AC50 is > 42 µM (inactive).
Under `CCN(CC)C(=O)CSc1nnc(SCc2ccc(Cl)cc2)s1` stands > 42 µM (inactive).
Then `Cc1ccc2nc3c(cc(C(=O)NCCN4CCOCC4)c(=N)n3CCCN3CCOCC3)c(=O)n2c1`, with > 42 µM (inactive).
Then `O=C1NC(=O)C(=Cc2ccc(N3CCOCC3)cc2)C(=O)N1`, with > 42 µM (inactive); and `O=C1NC2(CCCCC2)NN1c1ccccc1`, with > 42 µM (inactive).
For `CC(C)(C)c1ccc(-c2nc(C=O)c3ccccn23)cc1`, the AC50 is > 42 µM (inactive).
On to `O=C(CCc1ccccc1)NNC(=O)c1ccc(Br)cc1`, for which the AC50 was > 42 µM (inactive).
As for `Cc1cc(C)cc(NC(=O)CS(=O)(=O)c2ccccc2)c1`, the AC50 was > 42 µM (inactive).
On to `Cc1ccc(S(=O)(=O)Oc2ccc(/C=C3\N=C(c4cccc(C)c4)OC3=O)cc2)cc1`, for which the AC50 was > 42 µM (inactive).
Take `COc1ccc(CCNC(=O)Cn2nnc(-c3ccc(N4CCOCC4)cc3)n2)cc1OC`: the AC50 is > 42 µM (inactive).
On to `CC(=O)Oc1cccc(N2C(=O)c3ccc(C(=O)Nc4c[nH]c(=O)[nH]c4=O)cc3C2=O)c1`, for which the AC50 is > 42 µM (inactive).
Take `CCCOC(=O)c1c(NC(=O)/C=C/c2cnn(C)c2C)sc(C(=O)OC)c1C`: the AC50 was > 42 µM (inactive).
Turning to `COc1ccccc1OCCCn1cc(C#N)c2ccccc21`, the AC50 was > 42 µM (inactive).
Then `O=C(C1CCCN(S(=O)(=O)c2cnc[nH]2)C1)N1CCN(c2ccc(Cl)cc2)CC1` (configuration not stated), with > 42 µM (inactive); and `CSc1ccccc1NC(=O)COc1nsnc1N1CCOCC1`, with > 42 µM (inactive); and `CCOc1ccc(C)cc1S(=O)(=O)n1nc(C)cc1C`, with > 42 µM (inactive).
With `COc1ccc(NC(=O)C2CCCN(C(=O)Nc3cccc(OC)c3)C2)cc1` (configuration not stated), the AC50 was > 42 µM (inactive).
In the case of `CCc1cc2c(NCCO)ncnc2s1`, the AC50 was > 42 µM (inactive).
On to `CC(NC(=O)C1CCCN(S(=O)(=O)N2CCOCC2)C1)c1ccccc1` (configuration not stated), for which the AC50 was > 42 µM (inactive).
For the molecule `O=C(OCc1ccccc1)c1cccc(-c2nnn(Cc3ccccc3)n2)c1`, the AC50 was > 42 µM (inactive).
Under `CCN(CC)c1nc2c(c(=O)[nH]c(=O)n2C)n1CCOc1ccccc1` stands > 42 µM (inactive); under `COC(=O)c1sc(NC(=O)c2ccc(Cn3cc(Cl)cn3)o2)c(C#N)c1C`, > 42 µM (inactive); under `O=C(O)COc1ccc(Br)cc1/C=N\Nc1ccccn1`, > 42 µM (inactive).
`O=C(CSc1nnc(CNC(=O)c2ccccc2F)o1)NCCc1ccccc1`: the AC50 is > 42 µM (inactive).
Turning to `Cc1cc(C)n2nc(SCC(=O)NC3CCCC(C)C3C)nc2n1` (configuration not stated), the AC50 is > 42 µM (inactive).
Turning to `COc1ccc(C(=O)CC(=O)C(=O)Nc2ccc(C)c(C)c2)cc1`, the AC50 was > 42 µM (inactive).
`O=C(c1cccs1)N(C(=O)c1cccs1)c1ccc(Br)cn1`: the AC50 is 1.35 µM.
On to `C/C(=N\NC(=O)Cc1csc(N2CCOCC2)n1)c1ccccc1`, for which the AC50 is > 42 µM (inactive).
Then `COC(=O)C1CN(C(=O)C(C)Oc2ccc(F)cc2)c2ccccc2O1` (configuration not stated), with > 42 µM (inactive); and `CCOC(=O)N1CCC(NS(=O)(=O)c2ccc(C)c(Cl)c2)CC1`, with > 42 µM (inactive).
Regarding `O=C1CN(C(=O)COC(=O)c2cccc(S(=O)(=O)NCc3ccccc3)c2)c2ccccc2N1`, the AC50 is > 42 µM (inactive).
Under `CN(C)CCOC(c1ccc(Cl)cc1)c1ccccn1` (configuration not stated) stands > 42 µM (inactive).
In the case of `Cn1c(CCN2CCOCC2)nc2cc(NC(=O)COc3ccccc3)ccc21`, the AC50 was > 42 µM (inactive).
As for `COCCn1c(SCC(=O)NCc2cccs2)nnc1-c1ccc(OC)cc1`, the AC50 is > 42 µM (inactive).
Then `Cc1cccc(CS(=O)(=O)Cc2ccc(C(=O)NCC3CCCO3)o2)c1` (configuration not stated), with > 42 µM (inactive); and `COC(=O)CN1C(=O)c2cccc3cccc1c23`, with > 42 µM (inactive).
`CN(c1ccccc1C(=O)N1CCN(Cc2ccc3c(c2)OCO3)CC1)S(C)(=O)=O`: the AC50 was > 42 µM (inactive).
`O=C(OC1CCOC1=O)c1cccc(S(=O)(=O)Nc2ccc(F)cc2)c1` (configuration not stated): the AC50 is > 42 µM (inactive).
Then `Cc1cc(C)cc(N(CC(=O)Nc2cccc(C)n2)S(=O)(=O)c2c(C)noc2C)c1`, with > 42 µM (inactive).
For `Cn1c(CSc2nc3ccccc3s2)nnc1SCC(=O)NCCN1CCOCC1`, the AC50 was > 42 µM (inactive).
Then `CCOc1ccc(NC(=O)CC2C(=O)N(c3ccccc3)C(=S)N2Cc2ccccn2)cc1` (configuration not stated), with > 42 µM (inactive); and `COc1cc(NC(=O)CN2CCN(CC(=O)Nc3ccccc3OC)CC2)cc(OC)c1`, with > 42 µM (inactive).
Consider `CC(C)CCNC(=O)Nc1ccc2c(c1)N(C)C(=O)CS2`, for which the AC50 was > 42 µM (inactive).
Turning to `CC(C)(C)NC(=O)CN(C(=O)CCC(=O)Nc1nccs1)c1ccc2c(c1)OCCO2`, the AC50 is > 42 µM (inactive).
With `CC1CCCN(C(=O)Cc2ccc(F)cc2)C1` (configuration not stated), the AC50 was > 42 µM (inactive).
Under `C/C(=C\C(=O)N1CCc2ccccc21)C(=O)O` stands > 42 µM (inactive); under `CCOc1ccccc1N(CC(=O)Nc1ccccc1C(=O)N1CCCC1)S(C)(=O)=O`, > 42 µM (inactive).

The record behind these values is PubChem BioAssay AID463204 (Broad Institute, 2010).
